Data set [1] deals with phosphodiesterase (PDE) from human blood platelets. Put plainly: PDE inhibition (phosphodiesterase from human blood platelets, 3H-cAMP hydrolysis). The data set is classed as biochemical. Conditions: human platelet PDE, 1 μmol/liter 3H-cAMP, pH 7.4, 15 minutes at 37° C. As to the method:
cAMP is hydrolyzed to AMP by phosphodiesterase (PDE) from various sources, including blood platelets.
The phosphodiesterase used was prepared by centrifugal extraction at 10,000 g from human blood platelets which were frozen in water and then thawed.
A quantity of 0.3 ml of a mixture containing 0.1 mol/liter of […] (pH 7.4), 3 mmols/liter of magnesium chloride, 1 mmol/liter of AMP, 1 μmol/liter of ^3 H-cAMP (specific activity about 10 MBq/μmol), PDE, and the inhibitor under investigation (water in the case of the control) was incubated for 15 minutes at 37° C. […] From a comparison of the results for inhibitor and control cases, the concentration of the respective inhibitor necessary for a 50% inhibiting effect (IC50) was calculated.

For the next data set, the system named is thrombocyte aggregation. Put plainly: Antithrombotic activity: collagen-induced thrombocyte aggregation in platelet-rich plasma (Born and Cross). Type of data set: cell-based. Conditions: Homo sapiens, 50% change in optical density, ten minutes at 37° C. Here is the method:
The thrombocyte aggregation is determined in platelet-rich plasma from healthy test subjects using the method of Born and Cross [J. Physiol. 170, 397 (1964)]. To inhibit coagulation, the blood is mixed with 3.14 percent of sodium citrate in a volume ratio of 1:10.
The pattern of the decrease in optical density of the platelet suspension after administration of the aggregation-initiating substance is measured photometrically and recorded. The speed of aggregation is deduced from the angle of inclination of the density curve. The point of the curve where there is the most light transmittance is used to calculate the optical density.
The quantity of collagen used is as small as possible, but sufficient to produce an irreversible reaction curve. The standard commercial collagen made by Hormonchemie of Munich is used. Before the collagen is administered, the plasma is incubated with the substance for ten minutes at 37° C.
From the measurements obtained, and EC50 is obtained graphically, relating to a 50% change in optical density by way of an inhibition of aggregation.

Another data set deals with mice. Put plainly: Acute toxicity after oral administration of a single dose. The data set is classed as in vivo. Conditions: observation period 14 days. As to the method: The acute toxicity of the test compounds was determined, as a guide, in groups of ten mice, after oral administration of a single dose (observation period: 14 days): […]
In the next data set the test system is primary hemostasis. Put plainly: Determination of the prolongation of bleeding time in conscious mice. Type of data set: in vivo. The following applies: Mus musculus, 1 h, 10 mg/kg oral, one hour, as compared to a control group, read-out: Prolongation of Bleeding Time after One Hour (%). Here is the method:
Since, in the event of injury, the first rapid cessation of bleeding is effected by the adhesion and aggregation of the thrombocytes at the vessel wall, the functioning of the thrombocytes can easily be determined by measuring the bleeding time with a standardized injury. The normal bleeding time in humans is between 1 and 3 minutes, assuming that there are sufficient intact, effective thrombocytes. If the number of thrombocytes is normal and the bleeding time is prolonged, this signifies an abnormality in the thrombocytes. This is found in some inborn errors of thrombocyte function. If, on the other hand, it is desired to prevent spontaneous aggregation of the thrombocytes and occlusion in the arterial system by drugs, successful therapy affecting the thrombocytes should prolong the bleeding time. Therefore, with use of an antithrombotic substance, a prolongation of the bleeding time is expected. Also, there should be a normal coagulation time since the plasma coagulation system is not affected.
To measure the bleeding time, 10 mg/kg of the test compounds were administered orally to conscious mice. After one hour, 0.5 mm of the tip of the tail of each mouse was cut off, and droplets of blood were gently removed with filter paper every 30 seconds. The number of drops of blood thus obtained gives a bleeding time (5 animals per experiment).
The results in the following table represent the prolongation of the bleeding time in percent as compared to a control group.

In turn, `CC1(C)OC(=O)Nc2ccc(OCCCC[S+]([O-])c3ccc(Cl)cc3)cc21` (centres unmarked) [Compound A, 6-[4-(4-chloro-phenylsulfinyl)-butoxyl]-4,4-dimethyl-4H-3,1-benzoxazin-2-one] had an IC50 in data set [1] of 240 nM. In the data set with thrombocyte aggregation, this molecule had an EC50 of 340 nM. Moreover, the “Approximate Acute Toxicity” value in the data set with mice (groups of ten, single oral dose) amounted to 1000 mg. The animals died in the data set on mice (single oral dose 1000 mg) was 0 out of 10 animals died. Moreover, in the data set on primary hemostasis, the change in vivo at 10 mg/kg was above 248%.

Broadly, the IC50 is the point on the concentration scale where inhibition reaches its midpoint. Usually EC50 stands for the midpoint of the concentration-response curve. Low readings indicate greater potency, high ones weaker potency.

These data come from patent US4518597A, “Substituted benzoxazin-2-ones and pharmaceutical compositions containing them” (Dr. Karl Thomae GmbH, priority 1982, dated 1985).
